# Test results published in patent US11584737B2, “Heterocyclic compound” (TAKEDA PHARMACEUTICAL COMPANY LIMITED, priority 2018, dated 2023).
# Biological target: T1, CDK12/CycK complex (Homo sapiens, UniProt Q9NYV4)
# Test: Measurement of CDK12 inhibitory activity by binding assay (TR-FRET, 66 nM BODIPY-FL-labeled AT-7519)
# Settings: inhibitory rate against CDK12 at 1 μM test compound, 66 nM BODIPY-FL-labeled AT-7519, 2 nM CDK12/CycK
# Procedure: Experimental Example 1: CDK12 Binding Assay
# (3) Measurement of CDK12 Inhibitory Activity by Binding Assay
# (§1) His-tagged CDK12/CycK complex was added to a binding assay buffer supplemented with BODIPY-FL labeled AT-7519, terbium-labeled streptavidin and biotin-labeled anti-histidine antibody, and the mixture was stood for not less than 60 min at room temperature. This solution was added to an assay plate containing a test compound dispensed therein, and the mixture was left standing for 120 min at room temperature. The final concentration of CDK12/CycK complex, BODIPY-FL-labeled AT-7519, terbium-labeled streptavidin and biotin-labeled anti-histidine antibody was set to 2 nM, 66 nM, 0.2 nM, and 0.4 nM, respectively. The fluorescence intensity derived from terbium and BODIPY-FL was measured using Envision. The signal value of each well was determined using the TR-FRET ratio calculated by the following formula. TR-FRET ratio=(fluorescence value of BODIPY-FL)÷(fluorescence value of terbium)
# (§2) The inhibitory rate (%) of the test compound against CDK12 was calculated by the following formula. Inhibitory rate (%)=(1−(TR-FRET ratio of test compound−blank)÷(control−blank))×100
# The TR-FRET ratio of the CDK12 enzyme reaction mixture under compound non-addition conditions is indicated as control, and the TR-FRET ratio under 3 μM AT-7519 addition conditions is indicated as blank.
# The inhibitory rate of the test compound against CDK12 at […] is shown below.
# T1 sequence (Q9NYV4 whole entry, species assumed): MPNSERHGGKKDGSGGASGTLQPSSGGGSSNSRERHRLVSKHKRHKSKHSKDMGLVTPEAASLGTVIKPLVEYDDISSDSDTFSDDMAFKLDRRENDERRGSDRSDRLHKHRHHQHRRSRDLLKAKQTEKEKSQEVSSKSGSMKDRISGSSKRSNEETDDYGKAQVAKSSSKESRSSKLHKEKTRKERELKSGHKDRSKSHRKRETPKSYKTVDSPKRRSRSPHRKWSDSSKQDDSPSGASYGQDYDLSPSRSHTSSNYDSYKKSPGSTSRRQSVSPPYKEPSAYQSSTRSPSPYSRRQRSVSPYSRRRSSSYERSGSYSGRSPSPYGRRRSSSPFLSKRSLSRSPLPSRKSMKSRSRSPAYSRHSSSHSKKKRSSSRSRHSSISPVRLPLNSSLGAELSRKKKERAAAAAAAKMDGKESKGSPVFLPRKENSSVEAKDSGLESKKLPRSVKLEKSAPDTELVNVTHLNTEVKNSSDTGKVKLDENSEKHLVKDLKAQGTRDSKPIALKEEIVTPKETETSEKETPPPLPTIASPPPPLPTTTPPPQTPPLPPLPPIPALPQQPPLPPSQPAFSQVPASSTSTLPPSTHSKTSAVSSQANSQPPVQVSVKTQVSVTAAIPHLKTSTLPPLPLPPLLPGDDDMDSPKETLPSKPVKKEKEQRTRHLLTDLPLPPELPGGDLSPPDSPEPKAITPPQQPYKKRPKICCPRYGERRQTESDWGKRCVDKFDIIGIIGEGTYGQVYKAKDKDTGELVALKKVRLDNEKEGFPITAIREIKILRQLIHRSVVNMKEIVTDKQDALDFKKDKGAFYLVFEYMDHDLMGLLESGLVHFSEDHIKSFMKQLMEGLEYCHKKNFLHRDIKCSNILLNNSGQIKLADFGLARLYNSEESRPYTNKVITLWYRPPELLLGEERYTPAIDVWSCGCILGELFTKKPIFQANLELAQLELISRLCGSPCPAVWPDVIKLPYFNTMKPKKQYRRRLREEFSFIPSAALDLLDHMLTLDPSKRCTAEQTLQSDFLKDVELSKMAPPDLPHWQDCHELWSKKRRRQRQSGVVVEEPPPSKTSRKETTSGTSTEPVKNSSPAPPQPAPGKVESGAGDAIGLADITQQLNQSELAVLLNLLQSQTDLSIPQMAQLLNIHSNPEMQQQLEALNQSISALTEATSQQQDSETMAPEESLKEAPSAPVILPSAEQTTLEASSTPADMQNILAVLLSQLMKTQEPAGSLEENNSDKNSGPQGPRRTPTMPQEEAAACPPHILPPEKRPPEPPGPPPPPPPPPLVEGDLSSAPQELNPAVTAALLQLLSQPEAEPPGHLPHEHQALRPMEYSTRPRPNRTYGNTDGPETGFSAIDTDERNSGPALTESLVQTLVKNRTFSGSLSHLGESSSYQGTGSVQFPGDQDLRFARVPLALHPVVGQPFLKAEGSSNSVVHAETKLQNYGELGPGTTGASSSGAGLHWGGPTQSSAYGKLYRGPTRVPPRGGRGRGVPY
# T1 sequence (O75909 whole entry partner, species assumed): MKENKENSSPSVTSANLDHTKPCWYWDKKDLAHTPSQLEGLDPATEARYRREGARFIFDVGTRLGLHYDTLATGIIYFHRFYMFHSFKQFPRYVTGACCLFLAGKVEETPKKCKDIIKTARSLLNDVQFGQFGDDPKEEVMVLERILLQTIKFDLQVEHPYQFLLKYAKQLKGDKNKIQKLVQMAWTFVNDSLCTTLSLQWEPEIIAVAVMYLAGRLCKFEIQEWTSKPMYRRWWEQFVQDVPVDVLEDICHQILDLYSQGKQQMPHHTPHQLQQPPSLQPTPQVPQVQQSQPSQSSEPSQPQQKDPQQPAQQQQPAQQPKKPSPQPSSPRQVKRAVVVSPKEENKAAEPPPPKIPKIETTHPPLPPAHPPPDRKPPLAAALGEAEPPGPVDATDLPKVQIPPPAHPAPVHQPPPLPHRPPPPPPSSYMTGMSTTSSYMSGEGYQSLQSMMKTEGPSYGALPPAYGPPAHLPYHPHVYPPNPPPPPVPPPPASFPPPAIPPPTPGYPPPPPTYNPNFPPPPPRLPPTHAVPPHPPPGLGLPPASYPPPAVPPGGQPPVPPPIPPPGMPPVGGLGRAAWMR
row,SMILES,inhibition at 1 µM [%]
1,"COc1ncc(-c2ccc(N(C(=O)N[C@H](C)c3ccccc3)[C@H]3CC[C@H](Nc4ncc(C(F)(F)F)c(N5CC(C)(O)C5)n4)CC3)nc2)cn1 [Example 631, 1-(trans-4-((4-(3-hydroxy-3-methylazetidin-1-yl)-5-(trifluoromethyl)pyrimidin-2-yl)amino)cyclohexyl)-1-(5-(2-methoxypyrimidin-5-yl)pyridin-2-yl)-3-((1R)-1-phenylethyl)urea]",103
2,"COc1ncc(-c2ccc(N(C(=O)N[C@@H](C)c3ccccc3)[C@H]3CC[C@H](Nc4ncc(C(F)(F)F)c(N5CC(C)(O)C5)n4)CC3)nc2)cn1 [Example 633, 1-(trans-4-((4-(3-hydroxy-3-methylazetidin-1-yl)-5-(trifluoromethyl)pyrimidin-2-yl)amino)cyclohexyl)-1-(5-(2-methoxypyrimidin-5-yl)pyridin-2-yl)-3-((1S)-1-phenylethyl)urea]",102

# Biological target: T1, CDK12/CycK complex
# Test: Measurement of CDK12 inhibitory activity by binding assay (BODIPY-FL labeled AT-7519 high concentration conditions, 1320 nM)
# Settings: inhibitory rate against CDK12 at 1 μM test compound, 1320 nM BODIPY-FL-labeled AT-7519, 8 nM CDK12/CycK
# Procedure: (4) Measurement of CDK12 Inhibitory Activity by Binding Assay (BODIPY-FL Labeled AT-7519 High Concentration Conditions)
# as §1, with “complex was blended with a binding” for “complex was added to a binding”, “biotin-labeled anti-histidine antibody. This solution” for “biotin-labeled anti-histidine antibody, and the mixture was stood for not less than 60 min at room temperature. This solution”, “set to 8 nM, 1320” for “set to 2 nM, 66”, “8 nM, 1320 nM, 0.2” for “2 nM, 66 nM, 0.2”
# as §2
# The TR-FRET ratio of the CDK12 enzyme reaction mixture under compound non-addition conditions is indicated as control, and the TR-FRET ratio under 30 μM AT-7519 addition conditions is indicated as blank.
# The inhibitory rate of the test compound against CDK12 at 1 μM is shown below.
row,SMILES,inhibition at 1 µM [%]
1,"COc1ncc(-c2cnc(N(C(=O)NCc3ccccc3)[C@H]3CC[C@H](Nc4ncc(C(F)(F)F)c(OC5(C)COC5)n4)CC3)cn2)cn1 [Example 640, 3-benzyl-1-(5-(2-methoxypyrimidin-5-yl)pyrazin-2-yl)-1-(trans-4-((4-((3-methyloxetan-3-yl)oxy)-5-(trifluoromethyl)pyrimidin-2-yl)amino)cyclohexyl)urea]",105
2,"COc1ncc(-c2ccc(N(C(=O)NCC(F)F)[C@H]3CC[C@H](Nc4ncc(C(F)(F)F)c(-c5cncc(S(C)(=O)=O)c5)n4)CC3)nc2)cn1 [Example 741, 3-(2,2-difluoroethyl)-1-(trans-4-((4-(5-(methane-sulfonyl)pyridin-3-yl)-5-(trifluoromethyl)pyrimidin-2-yl)amino)cyclohexyl)-1-(5-(2-methoxypyrimidin-5-yl)pyridin-2-yl)urea]",87
3,"COc1ncc(-c2cnc(N(C(=O)NCC(F)F)[C@H]3CC[C@H](Nc4ncc(C(F)(F)F)c(-c5n[nH]c(C)c5Cl)n4)CC3)cn2)cn1 [Example 745, 1-(trans-4-((4-(4-chloro-5-methyl-1H-pyrazol-3-yl)-5-(trifluoromethyl)pyrimidin-2-yl)amino)cyclohexyl)-3-(2,2-difluoroethyl)-1-(5-(2-methoxypyrimidin-5-yl)pyrazin-2-yl)urea]",94
4,"COc1ncc(-c2cnc(N(C(=O)N3CC(C)(O)C3)[C@H]3CC[C@H](Nc4ncc(C(F)(F)F)c(-c5n[nH]cc5Cl)n4)CC3)cn2)cn1 [Example 746, N-(trans-4-((4-(4-chloro-1H-pyrazol-3-yl)-5-(trifluoro-methyl)pyrimidin-2-yl)-amino)cyclohexyl)-3-hydroxy-N-(5-(2-methoxypyrimidin-5-yl)pyrazin-2-yl)-3-methylazetidine-1-carboxamide]",91
5,"COCCNC(=O)N(c1cnc(-c2cnc(OC)nc2)cn1)[C@H]1CC[C@H](Nc2ncc(C(F)(F)F)c(-c3nn(C(F)F)cc3Cl)n2)CC1 [Example 752, 1-(trans-4-((4-(4-chloro-1-(difluoromethyl)-1H-pyrazol-3-yl)-5-(trifluoromethyl)-pyrimidin-2-yl)amino)cyclo-hexyl)-3-(2-methoxyethyl)-1-(5-(2-methoxypyrimidin-5-yl)pyrazin-2-yl)urea]",90
6,"COCCNC(=O)N(c1cnc(-c2cnn(C)c2)cn1)[C@H]1CC[C@H](Nc2ncc(C(F)(F)F)c(-c3nn(C(F)F)cc3Cl)n2)CC1 [Example 756, 1-(trans-4-((4-(4-chloro-1-(difluoromethyl)-1H-pyrazol-3-yl)-5-(trifluoromethyl)-pyrimidin-2-yl)amino)cyclo-hexyl)-3-(2-methoxyethyl)-1-(5-(1-methyl-1H-pyrazol-4-yl)pyrazin-2-yl)urea]",90
7,"Cn1ccc(-c2cnc(N(C(=O)NCC(F)(F)F)[C@H]3CC[C@H](Nc4ncc(C(F)(F)F)c(-c5ccn(C(F)F)n5)n4)CC3)cn2)cc1=O [Example 768, 1-(trans-4-((4-(1-(difluoromethyl)-1H-pyrazol-3-yl)-5-(trifluoromethyl)-pyrimidin-2-yl)amino)-cyclohexyl)-1-(5-(1-methyl-2-oxo-1,2-dihydropyridin-4-yl)-pyrazin-2-yl)-3-(2,2,2-trifluoroethyl)urea]",92
8,"COc1ncc(-c2cnc(N(C(=O)NCC(F)F)[C@H]3CC[C@H](Nc4ncc(C(F)(F)F)c(OC5(C)COC5)n4)CC3)cn2)cn1 [Example 777, 3-(2,2-difluoroethyl)-1-(5-(2-methoxypyrimidin-5-yl)pyrazin-2-yl)-1-(trans-4-((4-((3-methyloxetan-3-yl)oxy)-5-(trifluoromethyl)pyrimidin-2-yl)amino)cyclohexyl)urea]",92
9,"COCC(=O)N(c1cnc(-c2cnc(OC)nc2)cn1)[C@H]1CC[C@H](Nc2ncc(C(F)(F)F)c(-c3n[nH]cc3Cl)n2)CC1 [Example 796, N-(trans-4-((4-(4-chloro-1H-pyrazol-3-yl)-5-(trifluoromethyl)pyrimidin-2-yl)amino)cyclohexyl)-2-methoxy-N-(5-(2-methoxypyrimidin-5-yl)pyrazin-2-yl)acetamide]",95
10,"COCC(=O)N(c1cnc(-c2cnc(OC)nc2)cn1)[C@H]1CC[C@H](Nc2ncc(C(F)(F)F)c(-c3ccn(C(F)F)n3)n2)CC1 [Example 797, N-(trans-4-((4-(1-(difluoro-methyl)-1H-pyrazol-3-yl)-5-(trifluoromethyl)pyrimidin-2-yl)amino)cyclohexyl)-2-methoxy-N-(5-(2-methoxypyrimidin-5-yl)pyrazin-2-yl)acetamide]",92
11,"COCCOC(=O)N(c1cnc(-c2cnc(OC)nc2)cn1)[C@H]1CC[C@H](Nc2ncc(C(F)(F)F)c(-c3cncc(S(C)(=O)=O)c3)n2)CC1 [Example 800, 2-methoxyethyl (trans-4-((4-(5-(methanesulfonyl)pyridin-3-yl)-5-(trifluoromethyl)pyrimidin-2-yl)amino)cyclohexyl) (5-(2-methoxypyrimidin-5-yl)pyrazin-2-yl)carbamate]",91
12,"COc1ncc(-c2cnc(N(C(=O)OCCN3CCOCC3)[C@H]3CC[C@H](Nc4ncc(C(F)(F)F)c(-c5cncc(S(C)(=O)=O)c5)n4)CC3)cn2)cn1 [Example 808, 2-(morpholin-4-yl)ethyl (trans-4-((4-(5-(methanesulfonyl)-pyridin-3-yl)-5-(trifluoro-methyl)pyrimidin-2-yl)amino)cyclohexyl) (5-(2-methoxypyrimidin-5-yl)pyrazin-2-yl)carbamate]",99
13,"COCC(=O)N(c1cnc(-c2cnn(C)c2)cn1)[C@H]1CC[C@H](Nc2ncc(C(F)(F)F)c(-c3ccn(C(F)F)n3)n2)CC1 [Example 811, N-(trans-4-((4-(1-(difluoromethyl)-1H-pyrazol-3-yl)-5-(trifluoromethyl)pyrimidin-2-yl)amino)cyclohexyl)-2-methoxy-N-(5-(1-methyl-1H-pyrazol-4-yl)pyrazin-2-yl)acetamide]",94
14,"COCC(=O)N(c1cnc(-c2cnn(C)c2)cn1)[C@H]1CC[C@H](Nc2ncc(C(F)(F)F)c(-c3cncc(S(C)(=O)=O)c3)n2)CC1 [Example 812, N-(trans-4-((4-(5-(methanesulfonyl)pyridin-3-yl)-5-(trifluoromethyl)pyrimidin-2-yl)amino)cyclohexyl)-2-methoxy-N-(5-(1-methyl-1H-pyrazol-4-yl)pyrazin-2-yl)acetamide]",95
15,"CCCC(=O)N(c1cnc(-c2cnn(C)c2)cn1)[C@H]1CC[C@H](Nc2ncc(C(F)(F)F)c(-c3cncc(S(C)(=O)=O)c3)n2)CC1 [Example 814, N-(trans-4-((4-(5-(methanesulfonyl)pyridin-3-yl)-5-(trifluoromethyl)pyrimidin-2-yl)amino)cyclohexyl)-N-(5-(1-methyl-1H-pyrazol-4-yl)pyrazin-2-yl)butanamide]",99
